# Measurements taken from patent publication US20130324428A1, “SPECIFIC BIOMARKER FOR IDENTIFICATION OF EXPOSURE TO LOWER ALIPHATIC SATURATED ALDEHYDES AND THE METHOD OF IDENTIFICATION USING THE SAME” (KOREA INSTITUTE OF SCIENCE AND TECHNOLOGY, priority 2012, published 2013).
# Legend:
# Format in all cases: cell-based, human
# [1] = tested on: KIF1A (NM_004321) expression in A549 cells; assay: Oligo microarray gene expression, KIF1A; settings: A549 cells treated 48 hours at the IC20 concentration; Cy5/Cy3 ratio vs untreated control
# Protocol: (§1) A549 cells were distributed in 6-well plate at the density of 25×10^4 cells/ml, to which lower aliphatic saturated aldehydes were treated for 48 hours at the concentrations determined in Example <1-2>. Total RNA was extracted from the cells by using trizol reagent according to the manufacturer's protocol (Invitrogen life technologies, USA), followed by purification by using RNease mini kit (Qiagen, USA). Genomic DNA was eliminated by using RNase-free DNase set (Qiagen, USA) during the RNA purification. The amount of total RNA was measured with spectrophotometer, and the concentration was confirmed by ND-1000 Spectrophotometer (Thermo Fisher Scientific Inc., USA) and Agilent 2100 Bioanalyzer (Agilent).
# (§2) For oligomicroarray analysis, cDNA was synthesized by using the total RNA obtained from the experimental group treated with lower aliphatic saturated aldehydes prepared in Example <2-1>. 30 μg of the obtained total RNA and 2 μg of oilgo (dT) primer (1 μg/μl) were mixed together, followed by reaction at 65° C. for 10 minutes, which was transferred into ice for annealing. Upon completion of annealing, reagents were added thereto as shown in Table 1 to induce reverse transcription of the annealed RNA. The total RNA extracted from the control group A549 cells was labeled with Cy3-dUTP (green). The total RNA extracted from the experimental group A549 cells treated with lower aliphatic saturated aldehydes was labeled with Cy5-dUTP (red). At that time, the two samples were mixed and purified by using Microcon YM-30 column (Millipore, USA).
# (§3) Hybridization and washing processes were performed according to the protocol provided by Ebiogen Inc.
# (§4) Labeled cRNA was purified. 600 ng of the purified cRNA was reacted at 60° C. for 30 minutes for fragmentation. The prepared cRNA was mixed with 2×GEx Hybridization Buffer HI-RPM. After well mixing, the mixture was loaded on chip, followed by hybridization in the oven at 65° C. for 17 hours. 17 hours later, the chip was washed with GE Wash Buffer […] and with GE Wash Buffer 2 for 1 minute. Centrifugation was performed with the chip at 800 rpm for 3 minutes, followed by drying thereof.
# (§5) Hybridization images on the slide were scanned with Agilent C scanner (Agilent technologies, CA, USA). At that time, the green fluorescent image indicated the activity of gene expressed specifically in the control group, while the red fluorescent image indicated the activity of gene expressed specifically in the experimental group. […] To obtain gene expression rate, the scanned images were analyzed by using Agilent Feature Extraction 10.7.3.1 (Agilent technologies, CA, USA). The extracted data proceeded to normalization by using Agilent GeneSpring GX 11.5.1 (Agilent technologies, CA, USA) to analyze gene expression pattern of each gene. The marker gene for lower aliphatic saturated aldehydes was selected from the obtained data.
# [2] = tested on: KIAA1199 (NM_018689) expression in A549 cells; assay: Oligo microarray gene expression, KIAA1199; settings: A549 cells treated 48 hours at the IC20 concentration; Cy5/Cy3 ratio vs untreated control
# Protocol: as §1, §2, §3, §4, §5
# A549 cells = assay: in vitro
# Protocol: (§6) A549 cells (Korean Cell Line Bank), the human lung cancer tissue derived cell line, were cultured in 100 mm dish containing RPMI (Gibro-BRL, USA) supplemented with 10% FBS until the confluency reached 80%. […] The concentration of vehicle was up to 0.1% in every experiment.
# (§7) MTT assay was performed with A549 cell line according to the method of Mossman, et al (J. Immunol. Methods, 65, 55-63, 1983).
# (§8) Particularly, the cells were distributed in 24-well plate (3.5×10^4 cells/well) containing RPMI (Gibro-BRL, USA) and then treated with lower aliphatic saturated aldehydes dissolved in DMSO. 48 hours later, 5 mg/ml of MTT (3-4,5-dimethylthiazol-2,5-diphenyltetra zolium bromide) was added thereto, followed by culture at 37° C. for 3 hours. Then, the medium was discarded and the formed formazan crystal was dissolved in 500 μl of DMSO, which was aliquoted in 96-well plate. OD540 was measured.
# [3] = tested on: EMR2 (NM_013447) expression in A549 cells; assay: Oligo microarray gene expression, EMR2; settings: A549 cells treated 48 hours at the IC20 concentration; Cy5/Cy3 ratio vs untreated control
# Protocol: as §1, §2, §3, §4, §5
# [4] = tested on: B3GALT4 (NM_003782) expression in A549 cells; assay: Oligo microarray gene expression, B3GALT4; settings: A549 cells treated 48 hours at the IC20 concentration; Cy5/Cy3 ratio vs untreated control
# Protocol: as §1, §2, §3, §4, §5
# [5] = tested on: DHRS9 (NM_005771) expression in A549 cells; assay: Oligo microarray gene expression, DHRS9; settings: A549 cells treated 48 hours at the IC20 concentration; Cy5/Cy3 ratio vs untreated control
# Protocol: as §1, §2, §3, §4, §5
# in vitro = settings: human
# Protocol: as §6, §7, §8
SMILES,IC20 (A549 cells) [µM],IC20 at 48 h (in vitro) [µM],"Median ratio of microarray, KIF1A [1]","Median ratio of microarray, KIAA1199 [2]","Median ratio of microarray, EMR2 [3]","Median ratio of microarray, B3GALT4 [4]","Median ratio of microarray, DHRS9 [5]"
CCCCCCCC=O [octanal],–,580,2.262,2.294,1.785,0.564,3.057
CCC=O [propionaldehyde],–,2500,3.814,4.454,6.906,0.483,2.988

# Now from value to molecule, other results behind:
IC20 (A549 cells) [µM],IC20 at 48 h (in vitro) [µM],SMILES,"Median ratio of microarray, KIF1A [1]","Median ratio of microarray, KIAA1199 [2]","Median ratio of microarray, EMR2 [3]","Median ratio of microarray, B3GALT4 [4]","Median ratio of microarray, DHRS9 [5]"
4600,–,CCCC=O [butylaldehyde],14.175,1.733,8.094,0.498,2.353
–,600,CCCCCCC=O [heptanal],1.955,2.815,2.25,0.634,2.157
–,800,CCCCCC=O [hexanal],1.682,1.736,1.89,0.574,1.654
–,1700,CCCCC=O [valeraldehyde],7.871,3.122,6.242,0.53,2.088
